Measured values published in patent publication US11844808B2, “Methods and compositions for treating pre-eclampsia” (Women & Infants Hospital of Rhode Island, priority 2018, dated 2023).

What was measured:
pregnant IL10-/- mice = assay: Mouse model of PE: severe PE serum in pregnant IL10-/- mice; type: in vivo; conditions: for preeclampsia-like features (hypertension, proteinuria, growth restriction, kidney injury): PE serum at gd10 in IL-10-/- mice, 2 g/kg i.p. at gd9, or gd11 and gd14, or gd9, gd11 and gd14, readout gd17
Description: (§1) FIGS. 16 and 17. Based on the results in the cellular model of PE, the effect of Trehalose treatment in an animal model of PE was evaluated next in an established mouse model of PE by a single administration of severe PE serum in pregnant IL10^−/− mice at gd10^22. Using this model, mice were injected intraperitoneally with vehicle, Trehalose (2 g/kg), maltose, or D-glucose (2 g/kg) at gestational day (gd) 9 (a single dose before serum injection), at gd11 and gd14 (two doses after serum injection), or at gd9, gd11 and gd14 (one dose before and two doses after serum injection) (FIG. 16). At gd17, urine was collected, blood pressure was measured, and fetal weight was recorded (FIG. 17A-D). Kidney was fixed and processed for H&E staining for glomerular endotheliosis (FIG. 17E). As reported previously, administration of severe PE sera, not normal pregnancy sera, at gd10 recapitulated a full spectrum of PE-like manifestations in IL-10^−/− mice, including hypertension, proteinuria, renal injury and fetal growth restriction (FIG. 17).

[1] = test system: LAMP1/2, TFEB and cathepsin D; assay: Expression of LAMP1/2, TFEB and cathepsin D in hypoxia-exposed primary trophoblast cells; type: cell-based, human
Description: FIG. 15. To investigate the underlying mechanisms, it was evaluated whether Trehalose can enhance the activities of autophagy-lysosomal degradation pathway, the machinery responsible for clearance of protein aggregates. To this end, the signaling molecules of this machinery such as LAMP1/2, TFEB and cathepsin D were examined in primary trophoblast cells in response to hypoxia stimulation with and without Trehalose treatment.

[2] = test system: protein aggregates in primary trophoblast cells; assay: ProteoStat staining of protein aggregates in hypoxia-exposed primary trophoblast cells; type: cell-based, human; conditions: 1% O2, 3 days
Description: Human primary trophoblast cells (ScienCell Research Laboratories) were plated on glass coverslips and cultured in trophoblast medium supplemented with 5% fetal bovine serum, 1% trophoblast growth supplement and 1% penicillin/streptomycin (ScienCell Research Laboratories) in a humidified atmosphere with 5% CO2 at 37° C. Cells were washed three times with Dulbecco's phosphate-buffered saline and cultured in serum-free trophoblast medium prior to exposure to low oxygen tension (1% O2) or normoxia (20% O2) for 3 days. Cells were fixed with 4% formaldehyde in PBS for 15 min, permeabilized and then stained with ProteoStat® dye. […] FIG. 14. The effect of Trehalose on protein aggregation was examined in primary trophoblast cells in response to hypoxia, a useful cellular model of PE. Primary trophoblast cells were cultured under normoxic and hypoxic (1% O2) culture conditions for 3 days, treated with vehicle, Trehalose, maltose, sucrose or D-glucose and then fixed for staining or lysed for Western blotting. ProteoStat, a dye with high affinity to aggregated proteins, was used to detect protein aggregates in treated and untreated cells.

[3] = test system: components of autophagy-lysosomal machinery; assay: Western blot of autophagy markers in hypoxia-exposed primary trophoblast cells; type: cell-based, human; conditions: trehalose 50 mM, 1% O2, 3 days
Description: Primary trophoblast cells were treated with vehicle or trehalose (50 mM), exposed to low oxygen tension (1% O2) or normoxia, and fixed at 3 days. Cells were harvested and lysed in RIPA lysis buffer containing protease inhibitors cocktail (Sigma). Proteins were separated by 4-12% SDS-PAGE and transferred into PVDF membrane. After blocking with 5% nonfat milk in PBS-tween (PBS-T) buffer for 30 min, the transferred membrane was incubated overnight in indicated primary antibodies, diluted in 3% or 5% BSA in PBS-T buffer, at 4° C. The membrane was washed three times, incubated for 1 h at room temperature with HRP-conjugated goat anti-rabbit/mouse IgG (Cell signaling), and then treated with enhanced chemiluminescent substrate (Thermofisher) and exposed on film.

cis-P-tau = cis-P-tau immunostaining in hypoxia-exposed primary trophoblast cells; type: cell-based, human; conditions: trehalose 50 mM, 1% O2, 3 days
Description: (§2) Human primary trophoblast cells (ScienCell Research Laboratories) were plated on glass coverslips and cultured in trophoblast medium supplemented with 5% fetal bovine serum, 1% trophoblast growth supplement and 1% penicillin/streptomycin (ScienCell Research Laboratories) in a humidified atmosphere with 5% CO2 at 37° C. Cells were washed three times with Dulbecco's phosphate-buffered saline and cultured in serum-free trophoblast medium prior to exposure to low oxygen tension (1% O2) or normoxia (20% O2) for 3 days. Cells were fixed with 4% formaldehyde in PBS for 15 min, permeabilized and then stained with ProteoStat® dye.
Primary trophoblast cells were treated with vehicle or trehalose (50 mM), exposed to low oxygen tension (1% O2) or normoxia, and fixed at 3 days. After permeabilized and blocked in PBS solution containing 1% Triton-X, 3% BSA and normal donkey serum for 30 min, cells were immunostained for cis-P-tau and mounted in anti-quench mounting medium with DAPI.

pS71-Pin1 = pS71-Pin1 immunostaining in nuclei of hypoxia-exposed primary trophoblast cells; type: cell-based, human; conditions: trehalose 50 mM, 1% O2, 3 days
Description: as §2
(§3) Primary trophoblast cells were treated with vehicle or trehalose (50 mM), exposed to low oxygen tension (1% O2) or normoxia, and fixed at 3 days. After permeabilized and blocked in PBS solution containing 1% Triton-X, 3% BSA and normal donkey serum for 30 min, cells were immunostained for pS71-Pin1 with rabbit anti-pS71-Pin1 antibody and then with Alexa Fluor 488 donkey anti-rabbit secondary antibody. Cells were then mounted in anti-quench mounting medium with DAPI.

[4] = test system: placenta of pre-eclamptic mice; assay: Placentas of pre-eclamptic mice: ProteoStat signal and cathepsin D expression; type: in vivo, mouse; conditions: all dose regimens
Description: as §1
FIG. 18. Furthermore, the molecular events that underlie effects of Trehalose in pre-eclamptic mice were interrogated. The placentas from Trehalose-treated mice and controls were assessed for the abundance of aggregated proteins and expression of molecules in autophagy-lysosomal pathway.

TCL-1 cells = assay: Autophagy-lysosomal machinery and protein aggregates in trophoblast cell line TCL-1 under hypoxia; type: cell-based, human
[5] = FDA; safety studies in mice, rats, and rabbits including in pregnancy; cited from earlier work
Pin1 = Pin1 immunostaining in nuclei of hypoxia-exposed primary trophoblast cells; type: cell-based, human; conditions: trehalose 50 mM, 1% O2, 3 days
Description: as §2
as §3, with “[…]” for “pS71-Pin1”, “mouse anti-Pin1” for “rabbit anti-pS71-Pin1”, “anti-mouse” for “anti-rabbit”

Compound | preeclampsia-like features (hypertension, proteinuria, growth restriction, kidney injury) (pregnant IL10-/- mice) | hypoxia-induced downregulation of LAMP1/2, TFEB and cathepsin D [1] | hypoxia-induced accumulation of protein aggregates (ProteoStat signal) [2] | hypoxia-induced accumulation of protein aggregates (ProteoStat signal) ([2]; listed as trehalose) | hypoxia-induced downregulation of components of autophagy-lysosomal machinery (Western blot) [3] | hypoxia-induced upregulation of cis-P-tau (cis-P-tau) | hypoxia-induced upregulation of nuclear pS71-Pin1 expression (pS71-Pin1) | expression of cathepsin D in placenta [4] | protein aggregates in placenta (ProteoStat signal) ([4]; labyrinth, junctional zone and decidua) | effect in mice administered normal pregnancy sera (pregnant IL10-/- mice; normal pregnancy serum, IL-10-/- mice, 2 g/kg i.p.) | autophagy-lysosomal machinery and aggregate clearance under hypoxia (TCL-1 cells) | safety status [5] | hypoxia-induced downregulation of nuclear Pin1 expression (Pin1)
O=C[C@H](O)[C@@H](O)[C@H](O)[C@H](O)CO [D-glucose, reference compound] | failed to rescue PE-like features | not easily observed | – | – | – | – | – | – | – | – | – | – | –
OC[C@H]1O[C@H](O[C@H]2[C@H](O)[C@@H](O)C(O)O[C@@H]2CO)[C@H](O)[C@@H](O)[C@@H]1O (mixture of isomers) [maltose, reference compound] | failed to rescue PE-like features | not easily observed | – | – | – | – | – | – | – | – | – | – | –
OC[C@H]1O[C@H](O[C@H]2O[C@H](CO)[C@@H](O)[C@H](O)[C@H]2O)[C@H](O)[C@@H](O)[C@@H]1O [Trehalose] | significantly reversed preeclampsia-like features | significantly rescued hypoxia-induced downregulation of these molecules | significantly rescued hypoxia-induced accumulation of protein aggregates | inhibits protein aggregation | blocked hypoxia-induced downregulation of these proteins | blocked hypoxia-induced upregulation of cis-P-tau | inhibited hypoxia-induced upregulation of nuclear pS71-Pin1 expression | rescued the expression of cathepsin D | significantly decreased protein aggregates | did not have obvious effect | restores autophagy machinery | generally regarded as safe | blocked hypoxia-induced downregulation of nuclear Pin expression
